This series is described as follows: relative stability of the polymorphic forms (crystallisation and slurry interconversion experiments). Particulars: stated as 'believed to be'. The format is physicochemical. The protocol: Thus in general, without wishing to be bound by theory, slower processes will favor the production of Form B. For example, slow addition of solvent, slow cooling rate and/or mixing will tend to favor the production of Form B, whereas fast solvent addition, fast cooling and/or minimal mixing time will favor production of Form A.
A mixture of 3-amino-1-propanesulfonic acid form A (0.7654 g) and form B (0.7880 g) were added to ethanol (5 mL) and water (1.25 mL) in a flask. The slurry was placed in a water bath at 5° C. and stirred for four hours. Solids were collected by vacuum filtration to afford form B.

For `NCCCS(=O)(=O)O` [Form B, 3-amino-1-propanesulfonic acid], the “thermodynamic stability of the polymorphic form” value (between about 5 and about 60° C.) is listed as “more thermodynamically stable form”.
On to `NCCCS(=O)(=O)O` [Form A, 3-amino-1-propanesulfonic acid], for which, under “generated from fast timescale experiments”, the “kinetic preference of the polymorphic form” value is reported as “kinetically favored form”.

Values taken from patent US20070049638A1, “Polymorphic forms of 3-amino-1-propanesulfonic acid” (Neurochem (International) Limited, priority 2005, published 2007).
